Assay results: US20040192641A1, “Special preparation of anticancer drugs made by novel nanotechnology” (priority 2003, published 2004)

How the values were obtained:
HL-60 = assay: Inhibition of tumor cell proliferation, HL-60; format: cell-based, human; settings: for Inhibition (%): 72 hours
Protocol: Human leukemia cells (HL-60) were grown in RPMI Medium 1640 supplemented with 10% (v/v) heat-inactivated FBS (56° C. for 30 min) at 37° C. in a humidified 95% air/5% CO2 atmosphere. Cells were seeded at a level of 2×10^5 cells/ml. Cells were allowed to attain a maximum density of 1.2×10^6 cells/ml before being passed by dilution into fresh medium to a concentration of 2×10^5 cells/ml.
Cell lines were routinely cultured in the RPMI1640 medium supplemented 20% fetal calf serum. The experiment was carried out in 96 microplate, each well had 5×10^5 cells and given desired concentration of drug (1 μg/ml). Then the plate was incubated at 37° C. in an atmosphere of humidified air enriched with 5 percent carbon dioxide for 72 hours. Inhibition percent rate of tumor cell proliferation was obtained according to the bellow formula. [formula]
(§1) Human tumor cell lines: Hela leukemia HL-60, malignant melanocarcinoma B16, oral epidermoid carcinoma (KB), lung carcinoma (A549), breast carcinoma MCF-7, adenocarcinoma of stomach.
(§2) Animal tumor cell lines: Walker carcinoma, LLC-WRC-256, malignant melanoma (RMMI 1846), 3T3, and S-180 sarcoma (CCRF-180). All lines were routinely cultured in the RPMI1640 medium supplemented 20% fetal calf serum. The experiment was carried out in 96 microplate, each well had 5×10^5 cells and given desired concentration of 1 μg/ml (1×10^−6 g/ml) drug. Then the plate was incubated at 37° C. in an atmosphere of humidified air enriched with 5 percent carbon dioxide for 72 hours.
Inhibition percent rate of tumor cell proliferation was obtained according to the bellow formula. [formula] […]

Hela = assay: Inhibition of tumor cell proliferation, Hela; format: cell-based, human; settings: 72 hours
Protocol: as §1, §2
(§3) Inhibition percent rate of tumor cell proliferation was obtained according to the bellow formula. [formula]
as §2, with “hours. Concentration of CUR or PK-CUR-NP is 50ng/ml.” for “hours.”
as §2, with “hours. Concentration of ELE or PK-ELE-NP is 50 ng/ml.” for “hours.”
as §2, with “hours. Concentration of CPT or PK-CPT-NP is 50 ng/ml.” for “hours.”

L1210 = assay: Growth of transplanted tumor, L1210 (tumor weight); format: in vivo, mice; settings: 20 mg/kg i.p. from second day, tumor weight on 12th day
Protocol: (§4) Male mice, weight 20-22 g, were used in the experiment. 1×10^7 tumor cells were injected to mouse and PK-HHT-NP injected intraperitoneally began second day. All mice were sacrificed on the 12th days, isolated the tumor and weighed and calculated the inhibition rate of tumor weight.
(§5) Male mice, weight 20-22 g, were used in the experiment. 1×10^7 tumor cells were injected to mouse and CUR and PK-CUR-NP injected intraperitoneally began second day. All mice were sacrificed on the 12th days, isolated the tumor and weighed and calculated the inhibition rate of tumor weight.
(§6) Male mice, weight 20-22 g, were used in the experiment. 1×10^7 tumor cells were injected to mouse and ELE injected intraperitoneally began second day. All mice were sacrificed on the 12th days, isolated the tumor and weighed and calculated the inhibition rate of tumor weight.
(§7) Male mice, weight 20-22 g, were used in the experiment. 1×10^7 tumor cells were injected to mouse and CPT injected intraperitoneally began second day. All mice were sacrificed on the 12th days, isolated the tumor and weighed and calculated the inhibition rate of tumor weight.

Lewis = assay: Growth of transplanted tumor, Lewis (tumor weight); format: in vivo, mice; settings: 20 mg/kg i.p. from second day, tumor weight on 12th day
Protocol: as §4, §5, §6, §7

S180 = assay: Growth of transplanted tumor, S180 (tumor weight); format: in vivo, mice; settings: 20 mg/kg i.p. from second day, tumor weight on 12th day
Protocol: as §4, §5, §6, §7

Walker 256 = assay: Growth of transplanted tumor, Walker 256 (tumor weight); format: in vivo, mice; settings: 20 mg/kg i.p. from second day, tumor weight on 12th day
Protocol: as §4, §5, §6, §7

[1] = tested on: NNK-induced lung tumorigenesis (pulmonary adenomas); assay: NNK-induced lung tumorigenesis; format: in vivo, mice; settings: 20 mg/kg daily by injection; 10 μmol NNK i.p.; sixteen weeks
Protocol: The capacity of tobacco-specific nitrosamine 4-(methylnitrosamino)-1-(3-pyridyl)-1-butanone (NNK) to induce tumor incidence was recognized.
(§8) Every group had 20 mice. For treatment group, each mouse was gave free CUR and PK-CUR-NP by injection at dose of 20 mg/kg daily. For control group, each mouse was gave same volume of physiological saline. Three days later, mice were gave 10 μmol NNK (in 0.1 ml saline) by i.p. injection. Sixteen weeks after these treatments the mice were killed and pulmonary adenomas were counted. The statistical significance of bioassay data was determined by student's test.
as §8, with “ELE” for “free CUR”, “PK-ELE-NP” for “PK-CUR-NP”
as §8, with “CPT” for “CUR”, “PK-CPT-NP” for “PK-CUR-NP”

[2] = tested on: oral epidermoid carcinoma (KB); assay: Inhibition of tumor cell proliferation, KB; format: cell-based, human; settings: 72 hours; for Inhibition (%): 50 ng/ml
Protocol: as §1, §2, §3
as §2, with “hours. Concentration of CUR or PK-CUR-NP is 50ng/ml.” for “hours.”
as §2, with “hours. Concentration of ELE or PK-ELE-NP is 50 ng/ml.” for “hours.”
Animal tumor cell lines: Walker carcinoma, LLC-WRC-256, malignant melanoma (RMMI 1846), 3T3, and S-180 sarcoma (CCRF-180). All lines were routinely cultured in the RPMI1640 medium supplemented 20% fetal calf serum. […]

Compound | inhibition at 0.05 µg/mL (HL-60; Homo sapiens, HL-60, 72 h, 50 ng/ml) [%] | inhibition at 0.05 µg/mL (Hela; Homo sapiens, HeLa, 50 ng/ml) [%] | Inhibition (%) of transplanted tumor (L1210) [%] | Inhibition (%) of transplanted tumor (Lewis) [%] | Inhibition (%) of transplanted tumor (S180) [%] | Inhibition (%) of transplanted tumor (Walker 256) [%] | Tumor incidence (%) [1] [%] | Inhibition (%) (HL-60; 50 ng/ml) | Inhibition (%) (Hela; 50 ng/ml) | Inhibition (%) [2] [%] | inhibition at 1 µg/mL (HL-60; Homo sapiens, HL-60, 72 h, 1 μg/ml) [%] | inhibition at 1 µg/mL (HL-60; Homo sapiens, HL-60, 72 h, Example 23, 1 μg/ml, NP dose equivalent of free HHT) [%] | inhibition at 1 µg/mL (Hela; Homo sapiens, HeLa, 1 μg/ml) [%] | inhibition at 1 µg/mL ([2]; Homo sapiens, 1 μg/ml) [%]
CC[C@@]1(O)C(=O)OCc2c1cc1n(c2=O)Cc2cc3ccccc3nc2-1 [CPT, Camptothecin] | 70.8 ± 11.2 | 60.8 ± 12.2 | 68.5 ± 9.8 | 60.8 ± 10.4 | 63.2 ± 12.1 | 71.8 ± 10.4 | 36.2 ± 6.2 | – | – | – | – | – | – | –
C=C1C[C@@]2(O)O[C@@]3(C[C@H]2C(C)C)[C@@H](C)CC[C@@H]13 [CUR, Curcumol] | – | – | 70.8 ± 9.0 | 68.9 ± 7.8 | 63.7 ± 7.3 | 59.8 ± 8.5 | 35.8 ± 5.8 | 76.8 ± 12.8 | 67.2 ± 10.4 | 60.8 ± 9.1 | – | – | – | –
COC(=O)C[C@](O)(CCCC(C)(C)O)C(=O)O[C@@H]1C(OC)=C[C@]23CCCN2CCc2cc4c(cc2[C@H]13)OCO4 [HHT, Homoharringtonine] | – | – | 87 ± 9 | 70 ± 6 | 76 ± 8 | 83 ± 9 | – | – | – | – | 70.8 ± 9 | 70.5 ± 8 | 75.6 ± 8 | 80 ± 8.5
Eelemene | – | – | 71.8 ± 9.5 | 65.8 ± 10.5 | 67.57 ± 9.1 | 60.8 ± 8.9 | 34.8 ± 6.2 | 78.9 ± 12.5 | 69.8 ± 11.2 | 60.2 ± 13.2 | – | – | – | –
